From US20070082880A1 (priority 2005, published 2007)

Biological target: T1, human PKCθ full length enzyme (Homo sapiens, UniProt Q04759)
T1 construct: human PKCθ full length enzyme (Panvera Catalog No. P2996); purchased Panvera P2996
Test: PKCθ IMAP Assay
Format: biochemical
Details: average value when one or more samples were tested; ATP 6 uM, PKCθ 1 nM
In short: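 Full-length human PKCθ (1 nM final) with 6 uM ATP and 100 nM 5FAM-labelled peptide, 5% DMSO, 3.0 mM DTT in reaction buffer. 25 min at room temperature; IMAP bead binding 20 min, fluorescence polarization read. Compounds 2:1 serially diluted; no-ATP and no-enzyme wells as controls.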

T1 sequence (Q04759 whole entry): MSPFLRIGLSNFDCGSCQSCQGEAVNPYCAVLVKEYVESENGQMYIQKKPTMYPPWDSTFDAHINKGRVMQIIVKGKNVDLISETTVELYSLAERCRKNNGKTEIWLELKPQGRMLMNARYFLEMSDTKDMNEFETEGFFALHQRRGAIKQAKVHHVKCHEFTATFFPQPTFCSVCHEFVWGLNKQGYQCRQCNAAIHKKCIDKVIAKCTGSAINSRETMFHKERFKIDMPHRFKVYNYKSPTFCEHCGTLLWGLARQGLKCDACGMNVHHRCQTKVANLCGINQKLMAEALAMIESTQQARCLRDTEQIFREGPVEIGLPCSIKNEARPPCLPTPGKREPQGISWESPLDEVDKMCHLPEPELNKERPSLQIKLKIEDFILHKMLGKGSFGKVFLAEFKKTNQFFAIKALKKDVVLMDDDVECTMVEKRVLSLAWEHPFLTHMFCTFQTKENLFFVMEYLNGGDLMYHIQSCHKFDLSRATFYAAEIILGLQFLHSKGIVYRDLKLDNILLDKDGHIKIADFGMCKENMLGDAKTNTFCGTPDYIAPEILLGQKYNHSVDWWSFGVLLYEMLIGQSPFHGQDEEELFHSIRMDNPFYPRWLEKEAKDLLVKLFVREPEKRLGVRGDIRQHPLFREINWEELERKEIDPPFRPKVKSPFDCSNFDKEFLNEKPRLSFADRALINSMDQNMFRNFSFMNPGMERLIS

Structure (SMILES) | IC50 [nM]
COc1ccc(-c2cc3c(Nc4ccc5[nH]ccc5c4)c(C#N)cnc3s2)cc1CN(C)C [Compound 456, 2-{3-[(dimethylamino)methyl]-4-methoxyphenyl}-4-(1H-indol-5-ylamino)thieno[2,3-b]pyridine-5-carbonitrile] | 318
Cc1c(Nc2c(C#N)cnc3sc(-c4cccc(CN(C)C)c4)c(C)c23)ccc2[nH]ccc12 [Compound 458, 2-{3-[(dimethylamino)methyl]phenyl}-3-methyl-4-[(4-methyl-1H-indol-5-yl)amino]thieno[2,3-b]pyridine-5-carbonitrile] | 99
COc1ccc(CN(C)C)cc1-c1sc2ncc(C#N)c(Nc3ccc4[nH]ccc4c3C)c2c1C [Compound 459, 2-{5-[(dimethylamino)methyl]-2-methoxyphenyl}-3-methyl-4-[(4-methyl-1H-indol-5-yl)amino]thieno[2,3-b]pyridine-5-carbonitrile] | 243
Cc1c(Nc2c(C#N)cnc3sc(-c4ccc(CN(C)C)cc4)c(C)c23)ccc2[nH]ccc12 [Compound 460, 2-{4-[(dimethylamino)methyl]phenyl}-3-methyl-4-[(4-methyl-1H-indol-5-yl)amino]thieno[2,3-b]pyridine-5-carbonitrile] | 61
Cc1c(Nc2c(C#N)cnc3sc(-c4cncc(CN(C)C)c4)cc23)ccc2[nH]ccc12 [Compound 462, 2-{5-[(dimethylamino)methyl]pyridin-3-yl}-4-[(4-methyl-1H-indol-5-yl)amino]thieno[2,3-b]pyridine-5-carbonitrile] | 83
CN(C)Cc1cscc1-c1cc2c(Nc3ccc4[nH]ccc4c3)c(C#N)cnc2s1 [Compound 464, 2-{4-[(dimethylamino)methyl]-3-thienyl}-4-(1H-indol-5-ylamino)thieno[2,3-b]pyridine-5-carbonitrile] | 77
Cc1c(Nc2c(C#N)cnc3sc(-c4cc(CN(C)C)cc(OC(C)C)c4)cc23)ccc2[nH]ccc12 [Compound 466, 2-{3-[(dimethylamino)methyl]-5-isopropoxyphenyl}-4-[(4-methyl-1H-indol-5-yl)amino]thieno[2,3-b]pyridine-5-carbonitrile] | 64
Cc1c(Nc2c(C#N)cnc3sc(-c4cc5cc(CN(C)C)ccc5s4)cc23)ccc2[nH]ccc12 [Compound 467, 2-{5-[(dimethylamino)methyl]-1-benzothien-2-yl}-4-[(4-methyl-1H-indol-5-yl)amino]thieno[2,3-b]pyridine-5-carbonitrile] | 171
Cc1c(Nc2c(C#N)cnc3sc(-c4ccccc4CNCCCO)cc23)ccc2[nH]ccc12 [Compound 469, 2-(2-{[(3-hydroxypropyl)amino]methyl}phenyl)-4-[(4-methyl-1H-indol-5-yl)amino]thieno[2,3-b]pyridine-5-carbonitrile] | 151
Cc1c(Nc2c(C#N)cnc3sc(-c4ccccc4CNCCO)cc23)ccc2[nH]ccc12 [Compound 470, 2-(2-{[(2-hydroxyethyl)amino]methyl}phenyl)-4-[(4-methyl-1H-indol-5-yl)amino]thieno[2,3-b]pyridine-5-carbonitrile] | 57
N#Cc1cnc2sc(C3=CCNCC3)cc2c1Nc1cccc2[nH]ccc12 [Compound 473, 4-(1H-indol-4-ylamino)-2-(1,2,3,6-tetrahydropyridin-4-yl)thieno[2,3-b]pyridine-5-carbonitrile] | 143
Cc1c(Nc2c(C#N)cnc3sc(C4=CCN(Cc5ccccc5)CC4)cc23)ccc2[nH]ccc12 [Compound 476, 2-(1-benzyl-1,2,3,6-tetrahydropyridin-4-yl)-4-[(4-methyl-1H-indol-5-yl)amino]thieno[2,3-b]pyridine-5-carbonitrile] | 153
Cc1c(Nc2c(C#N)cnc3sc(C4CCNCC4)cc23)ccc2[nH]ccc12 [Compound 478, 4-[(4-methyl-1H-indol-5-yl)amino]-2-piperidin-4-ylthieno[2,3-b]pyridine-5-carbonitrile] | 70
Cc1c(Nc2c(C#N)cnc3sc(C4CCN(Cc5ccccc5)C4)cc23)ccc2[nH]ccc12 (centres unmarked) [Compound 479, 2-(1-benzylpyrrolidin-3-yl)-4-[(4-methyl-1H-indol-5-yl)amino]thieno[2,3-b]pyridine-5-carbonitrile] | 1970
Cc1c(Nc2c(C#N)cnc3sc(-c4cccc(OC[C@@H](C)O)c4)cc23)ccc2[nH]ccc12 [Compound 482, 2-(3-{[(2R)-2-hydroxypropyl]-oxy}phenyl)-4-[(4-methyl-1H-indol-5-yl)amino]thieno[2,3-b]pyridine-5-carbonitrile] | 93
Cc1c(Nc2c(C#N)cnc3sc(-c4cccc(OC[C@H](C)O)c4)cc23)ccc2[nH]ccc12 [Compound 483, 2-(3-{[(2S)-2-hydroxypropyl]-oxy}phenyl)-4-[(4-methyl-1H-indol-5-yl)amino]thieno[2,3-b]pyridine-5-carbonitrile] | 59
Cc1c(Nc2c(C#N)cnc3sc(-c4ccc(OC[C@H](O)CO)cc4)cc23)ccc2[nH]ccc12 [Compound 486, 2-(4-{[(2R)-2,3-dihydroxypropyl]-oxy}phenyl)-4-[(4-methyl-1H-indol-5-yl)amino]thieno[2,3-b]pyridine-5-carbonitrile] | 70
Cc1c(Nc2c(C#N)cnc3sc(-c4ccc(OC[C@H](C)O)cc4)cc23)ccc2[nH]ccc12 [Compound 488, 2-(4-{[(2S)-2-hydroxypropyl]-oxy}phenyl)-4-[(4-methyl-1H-indol-5-yl)amino]thieno[2,3-b]pyridine-5-carbonitrile] | 200
Cc1c(Nc2c(C#N)cnc3sc(-c4ccc(OC[C@@H](C)O)cc4)cc23)ccc2[nH]ccc12 [Compound 489, 2-(4-{[(2R)-2-hydroxypropyl]-oxy}phenyl)-4-[(4-methyl-1H-indol-5-yl)amino]thieno[2,3-b]pyridine-5-carbonitrile] | 175
Cc1c(Nc2c(C#N)cnc3sc(-c4ccccc4OC[C@@H](C)O)cc23)ccc2[nH]ccc12 [Compound 490, 2-(2-{[(2R)-2-hydroxypropyl]-oxy}phenyl)-4-[(4-methyl-1H-indol-5-yl)amino]thieno[2,3-b]pyridine-5-carbonitrile] | 105
Cc1c(Nc2c(C#N)cnc3sc(-c4ccccc4OC[C@H](C)O)cc23)ccc2[nH]ccc12 [Compound 491, 2-(2-{[(2S)-2-hydroxypropyl]-oxy}phenyl)-4-[(4-methyl-1H-indol-5-yl)amino]thieno[2,3-b]pyridine-5-carbonitrile] | 177

Stronger by IC50, values ahead:

IC50 [nM] | Structure (SMILES)
49 | CN(C)Cc1ccc2sc(-c3cc4c(Nc5ccc6[nH]ccc6c5)c(C#N)cnc4s3)cc2c1 [Compound 465, 2-{5-[(dimethylamino)methyl]-1-benzothien-2-yl}-4-(1H-indol-5-ylamino)thieno[2,3-b]pyridine-5-carbonitrile]
41 | Cc1c(Nc2c(C#N)cnc3sc(-c4ccc(OC[C@@H](O)CO)cc4)cc23)ccc2[nH]ccc12 [Compound 487, 2-(4-{[(2S)-2,3-dihydroxypropyl]-oxy}phenyl)-4-[(4-methyl-1H-indol-5-yl)amino]thieno[2,3-b]pyridine-5-carbonitrile]
40 | Cc1c(Nc2c(C#N)cnc3sc(-c4cccc(OC[C@@H](O)CO)c4)cc23)ccc2[nH]ccc12 [Compound 485, 2-(3-{[(2S)-2,3-Dihydroxypropyl]-oxy}phenyl)-4-[(4-methyl-1H-indol-5-yl)amino]thieno[2,3-b]pyridine-5-carbonitrile]
29 | CCCOc1c(CN(C)C)cc(C)cc1-c1cc2c(Nc3ccc4[nH]ccc4c3C)c(C#N)cnc2s1 [Compound 455, 2-{3-[(dimethylamino)methyl]-5-methyl-2-propoxyphenyl}-4-[(4-methyl-1H-indol-5-yl)amino]thieno[2,3-b]pyridine-5-carbonitrile]
17 | Cc1c(Nc2c(C#N)cnc3sc(-c4cccc(OC[C@H](O)CO)c4)cc23)ccc2[nH]ccc12 [Compound 484, 2-(3-{[(2R)-2,3-Dihydroxypropyl]-oxy}phenyl)-4-[(4-methyl-1H-indol-5-yl)amino]thieno[2,3-b]pyridine-5-carbonitrile]
16 | Cc1c(Nc2c(C#N)cnc3sc(-c4csc(CN(C)C)c4)cc23)ccc2[nH]ccc12 [Compound 468, 2-{5-[(dimethylamino)methyl]-3-thienyl}-4-[(4-methyl-1H-indol-5-yl)amino]thieno[2,3-b]pyridine-5-carbonitrile]
14 | Cc1c(Nc2c(C#N)cnc3sc(-c4cc(CN(C)C)ccc4F)cc23)ccc2[nH]ccc12 [Compound 463, 2-{5-[(dimethylamino)methyl]-2-fluorophenyl}-4-[(4-methyl-1H-indol-5-yl)amino]thieno[2,3-b]pyridine-5-carbonitrile]
10 | Cc1c(Nc2c(C#N)cnc3sc(C4=CCNCC4)cc23)ccc2[nH]ccc12 [Compound 474, 4-[(4-methyl-1H-indol-5-yl)amino]-2-(1,2,3,6-tetrahydropyridin-4-yl)thieno[2,3-b]pyridine-5-carbonitrile]
8 | Cc1cc(CN(C)C)cc(-c2cc3c(Nc4ccc5[nH]ccc5c4C)c(C#N)cnc3s2)c1 [Compound 454, 2-{3-[(dimethylamino)methyl]-5-methylphenyl}-4-[(4-methyl-1H-indol-5-yl)amino]thieno[2,3-b]pyridine-5-carbonitrile]
6 | COc1ccc(CN2CCN(C)CC2)cc1-c1cc2c(Nc3ccc4[nH]ccc4c3C)c(C#N)cnc2s1 [Compound 461, 2-{2-methoxy-5-[(4-methylpiperazin-1-yl)methyl]phenyl}-4-[(4-methyl-1H-indol-5-yl)amino]thieno[2,3-b]pyridine-5-carbonitrile]
5 | COc1ccc(CN(C)C)cc1-c1cc2c(Nc3ccc4[nH]ccc4c3C)c(C#N)cnc2s1 [Compound 457, 2-{5-[(dimethylamino)methyl]-2-methoxyphenyl}-4-[(4-methyl-1H-indol-5-yl)amino]thieno[2,3-b]pyridine-5-carbonitrile]
